Reference: ChEMBL document CHEMBL1134064, “Structure-activity relationship investigations of a potent and selective benzodiazepine oxytocin antagonist” (Bioorg Med Chem Lett, 2001)

Columns and labels:
[1] = Plasma clearance was determined; format: ADME, organism-based, Canis lupus familiaris; details: dog
[2] = Volume distribution was determined; format: ADME, organism-based, Canis lupus familiaris; details: dog, in vivo
Oxytocin receptor = target: T1, Oxytocin receptor (Homo sapiens, UniProt P30559); test: Inhibition of binding of [3H]oxytocin with human oxytocin receptor
T1 sequence (P30559 whole entry): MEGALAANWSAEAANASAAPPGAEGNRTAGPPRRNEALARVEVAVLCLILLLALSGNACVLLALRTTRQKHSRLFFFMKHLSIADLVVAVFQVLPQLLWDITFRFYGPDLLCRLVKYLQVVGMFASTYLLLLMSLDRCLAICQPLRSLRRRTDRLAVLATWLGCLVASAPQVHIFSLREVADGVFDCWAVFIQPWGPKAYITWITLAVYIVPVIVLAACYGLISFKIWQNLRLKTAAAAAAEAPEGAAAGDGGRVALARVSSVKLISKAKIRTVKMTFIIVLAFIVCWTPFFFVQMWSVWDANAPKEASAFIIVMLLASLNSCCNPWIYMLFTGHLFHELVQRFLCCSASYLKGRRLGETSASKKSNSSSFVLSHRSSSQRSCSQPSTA

[3] = Bioavailability; format: ADME, organism-based, Canis lupus familiaris; details: dog, in vivo

SMILES | clearance [1] [mL/min/kg] | Vd [2] [L/kg] | Ki (Oxytocin receptor) [nM] | bioavailability [3] [%]
CC(=O)NC1N=C(c2ccccc2)c2ccccc2N(CC(=O)NCCc2cccc(Cl)c2)C1=O (centres undefined) | 6 | 0.4 | 100 | 
CC(=O)CCCC(=O)NC1N=C(C)c2ccccc2N(CC(=O)N[C@@H](Cc2ccc(Cl)c(Cl)c2)C(N)=O)C1=O (some centres undefined) |  |  | 200 | 
CC(=O)NC1N=C(c2ccccc2)c2ccccc2N(CC(=O)NCCc2ccc(Cl)c(Cl)c2)C1=O (centres undefined) |  |  | 100 | 
CC(=O)CCCC(=O)NC1N=C(c2ccccc2)c2ccccc2N(CC(=O)NC2CCc3ccccc3C2)C1=O (centres undefined) | 0.3 | 0.2 | > 5010 | 
CC(=O)CCCC(=O)NC1N=C(c2ccccc2)c2ccccc2N(CC(=O)NCCCc2cccc(Cl)c2)C1=O (centres undefined) |  |  | 100 | 
CC(=O)CCCC(=O)NC1N=C(c2ccccc2)c2ccccc2N(CC(=O)NCCc2cccc3ccccc23)C1=O (centres undefined) |  |  | 15.8 | 
CC(=O)NC1N=C(c2ccccc2)c2ccccc2N(CC(=O)N[C@@H](Cc2ccc(Cl)c(Cl)c2)C(N)=O)C1=O (some centres undefined) |  |  | 25.1 | 
CC(=O)NC1N=C(c2ccccc2)c2ccccc2N(CC(=O)NCCc2cccc3ccccc23)C1=O (centres undefined) |  |  | 100 | 
CC(=O)CCCC(=O)NC1N=C(c2ccccc2)c2ccccc2N(CC(=O)NCCc2ccccc2Cl)C1=O (centres undefined) |  |  | 200 | 
CC(=O)CCCC(=O)NC1N=C(c2ccccc2)c2ccccc2N(CC(=O)NCCc2ccccc2)C1=O (centres undefined) |  |  | 316 | 
NC(=O)[C@H](Cc1ccc(Cl)c(Cl)c1)NC(=O)CN1C(=O)C(NC(=O)CN2CCOCC2)N=C(c2ccccc2)c2ccccc21 (some centres undefined) | 33 | 2.8 | 39.8 | 
CS(=O)(=O)NC1N=C(c2ccccc2)c2ccccc2N(CC(=O)N[C@@H](Cc2ccc(Cl)c(Cl)c2)C(N)=O)C1=O (some centres undefined) |  |  | 501 | 
CC(=O)CCCC(=O)NC1N=C(C2CCCCC2)c2ccccc2N(CC(=O)N[C@@H](Cc2ccc(Cl)c(Cl)c2)C(N)=O)C1=O (some centres undefined) |  |  | 31.6 | 
CC(=O)CCCC(=O)NC1N=C(c2ccccc2)c2ccccc2N(CC(=O)N[C@@H](CC2CCCCC2)C(N)=O)C1=O (some centres undefined) |  |  | 794 | 
CC(=O)CCCC(=O)NC1N=C(Cn2ccnc2)c2ccccc2N(CC(=O)N[C@@H](Cc2ccc(Cl)c(Cl)c2)C(N)=O)C1=O (some centres undefined) |  |  | 794 | 
CC(=O)CCCC(=O)NC1N=C(c2ccccc2)c2ccccc2N(CC(=O)NCCc2cccc(Cl)c2)C1=O (centres undefined) | 3 | 0.3 | 20 | 
CC(=O)NC1N=C(c2ccccc2)c2ccccc2N(CC(=O)NCc2nc(-c3ccccc3)no2)C1=O (centres undefined) |  |  | 794 | 
CC(=O)CCCC(=O)NC1N=C(c2ccccc2)c2ccccc2N(CC(=O)NCCc2ccc(Cl)c(Cl)c2)C1=O (centres undefined) | 4 | 0.2 | 25.1 | 12
CC(=O)CCCC(=O)NC1N=C(c2ccccc2)c2ccccc2N(CC(=O)N[C@@H](Cc2ccc(Cl)c(Cl)c2)C(N)=O)C1=O (some centres undefined) | 62 | 0.6 | 7.94 | > 20
CC(=O)CCCC(=O)NC1N=C(c2ccccc2)c2ccccc2N(CC(=O)NCCc2ccc3ccccc3c2)C1=O (centres undefined) |  |  | 15.8 | 
CC(=O)NC1N=C(c2ccccc2)c2ccccc2N(CC(=O)NCc2nc(-c3ccc(Cl)c(Cl)c3)cs2)C1=O (centres undefined) |  |  | > 5010 | 
CC(=O)CCCC(=O)NC1N=C(c2ccccc2)c2ccccc2N(CC(=O)NC2=NOC(c3ccccc3)C2)C1=O (centres undefined) |  |  | > 3160 | 
CC(=O)NC1N=C(c2ccccc2)c2ccccc2N(CC(=O)N[C@H](Cc2ccc(Cl)c(Cl)c2)C(N)=O)C1=O (some centres undefined) |  |  | 794 | 
CC(=O)NC1N=C(c2ccccc2)c2ccccc2N(CC(=O)N(C)CCc2cccc(Cl)c2)C1=O (centres undefined) |  |  | 1580 | 
CC(=O)CCCC(=O)NC1N=C(c2ccccc2)c2ccccc2N(CC(=O)N[C@@H](Cc2ccc(F)cc2)C(N)=O)C1=O (some centres undefined) |  |  | 79.4 | 
